The nature of the assay: Warming compositions evaluated by a trained sensory panel (intensity scale 0 to 5). As to conditions: flavone glycoside 1 ppm combined with capsicum oleoresin 2 ppm; for Enhancement of the warming effect of capsicum oleoresin: versus capsicum oleoresin 2 ppm alone; for Flavor Intensity: scale 0 to 5 (0=none, 1=minimal, 3=moderate, 5=intense).

As to `O=c1cc(-c2ccc(O)cc2)oc2cc(OC3OC(CO)C(O)C(O)C3O)cc(O)c12` (centres unmarked) [Formula II, apigenin 7-O-glucoside], the “Enhancement of the warming effect of capsicum oleoresin” value (from here on “Enhancement”) is “enhanced” and the “Flavor Intensity” value stood at 2.5.

Turning to `COc1ccc(-c2cc(=O)c3c(O)cc(OC4OC(CO)C(O)C(O)C4O)cc3o2)cc1` (centres unmarked) [Formula III, acacetin 7-O-glucoside], the “Enhancement” value was “enhanced” and the “Flavor Intensity” value was 2.5.

For `CC1OC(OCC2OC(Oc3cc(O)c4c(=O)cc(-c5ccc(O)c(O)c5)oc4c3)C(O)C(O)C2O)C(O)C(O)C1O` (centres unmarked) [Formula IV, luteolin 7-O-rutinoside], the “Enhancement” value is on record as “enhanced” and the “Flavor Intensity” value is 2.5.

Take `COc1ccc(-c2cc(=O)c3c(O)cc(OC4OC(COC5OC(C)C(O)C(O)C5O)C(O)C(O)C4O)cc3o2)cc1` (centres unmarked) [Formula V, acacetin 7-O-rutinoside]: the “Enhancement” value is on record as “enhanced” and the “Flavor Intensity” value is 3.5.

The values above are taken from patent US20120251465A1, “FLAVOR COMPOSITION CONTAINING FLAVONE GLYCOSIDES” (priority 2011, published 2012).
